From patent US10724000B2, “Small molecule based conversion of somatic cells into neural crest cells” (Hoffmann-La Roche Inc., priority 2013, dated 2020)

What was measured:
[1] = system: fibroblast-derived secondary spheres; assay: Attachment of secondary spheres to laminin substrate (POL); assay type: cell-based, human; settings: two hours after plating on POL; FIG. 6
Protocol: • [3R,4R]-N-{4-[4-(2-Fluoro-6-hydroxy-3-methoxy-benzoyl)-benzoyl amino]-azep+an-3-yl}-4-hydroxy-3,5-dimethyl-benzamide hydrochlorid All growth factors were from R&D systems if not indicated otherwise. To compare effects of other inhibitors, Compound B was replaced by 2 μM Dorsomorphin, 10 uM H89 (Tocris), 10 μM Y27632, or 10 μM GSK650394 (Tocris), respectively. After four days, spheres were dissociated with Accutase and single cells were seeded in low attachment plates in NSC medium supplemented with inhibitor mix comprising 500 ng/ml Noggin (peprotech), 10 μM SB431452 (Tocris), and 1 μM CP21 (Roche). After 3 days, secondary spheres were seeded on polyornithine-laminin (POL) coated dishes. After attachment (24 hours), medium was replaced with differentiation medium comprising N2B27 (1:1 DMEM/F12 and Neurobasal with beta-mercaptoethanol (50 μM), B27 supplement without vitamin A (1:50, Invitrogen), and N2 supplement (1:100, Invitrogen)) supplemented with antibiotics, BDNF (20 ng/ml), GDNF (20 ng/ml), Laminin ([…]), Ascorbic Acid (0.2 mM) and dibutyryl-cAMP (0.5 mM, Sigma). Every other day, 50% of medium was exchanged. For the first seven days of differentiation, medium was supplemented with the inhibitor mix.

[2] = system: SCC058 foreskin fibroblasts; assay: Sphere formation assay of fibroblasts in suspension culture; assay type: cell-based, human; settings: day 3, FIG. 1B, 1D
Protocol: SCC058 foreskin fibroblasts (Millipore) were cultured at 37° C. and 5% CO2 in low serum FibroGro (Millipore). For conversion, 7300 cells/cm^2 were seeded in fibroblast medium containing 1 mM Valproic acid (VPA, Sigma). Then, cells were treated for two days with 1 mM VPA, and 6 μg/ml polybrene (Millipore) and subsequently transferred to low attachment plates in NSC medium for sphere formation. NSC medium consisted of NeuroCult NS-A proliferation medium (StemCell Technologies) supplemented with Penicillin/streptomycin, bFGF (20 ng/ml), EGF (20 ng/ml), BDNF (20 ng/ml), Heparin (2 μg/ml), D114 (500 ng/ml), Jagged1 (500 ng/ml), SHH (500 ng/ml, peprotech), Ascorbic Acid (0.2 mM, Sigma), FGF8a (100 ng/ml), 10% NSC-CM (medium conditioned by ESC-NSCs), and Compound B (2 μM, Roche).
• [3R,4R]-N-{4-[4-(2-Fluoro-6-hydroxy-3-methoxy-benzoyl)-benzoyl amino]-azep+an-3-yl}-4-hydroxy-3,5-dimethyl-benzamide hydrochlorid All growth factors were from R&D systems if not indicated otherwise. To compare effects of other inhibitors, Compound B was replaced by 2 μM Dorsomorphin, 10 uM H89 (Tocris), 10 μM Y27632, or 10 μM GSK650394 (Tocris), respectively. After four days, spheres were dissociated with Accutase and single cells were seeded in low attachment plates in NSC medium supplemented with inhibitor mix comprising 500 ng/ml Noggin (peprotech), 10 μM SB431452 (Tocris), and 1 μM CP21 (Roche).

ESC-NSCs = assay: Neural stem cell proliferation, ATP assay (CellTiterGlo); assay type: cell-based, human; settings: ATP assay after four days, FIG. 1A
Protocol: Embryonic stem cell-derived neural stem cells (ESC-NSCs) were generated as previously described using dual SMAD inhibition protocol (Chambers et al., 2009). NSCs were cultured on POL coated plates at 37° C., 5% CO2 in N2B27 supplemented with bFGF (10 ng/ml), EGF (10 ng/ml), BDNF (20 ng/ml). For Compound B identification, NSCs were seeded on POL coated plates at 21000 cells/cm^2 in N2B27. After cell attachment (4 h), compounds were added at indicated concentrations. Negative control cells were treated with DMSO. Cells were incubated for four days and subsequently the amount of ATP was determined using the CellTiterGlo® kit (Promega) according to the manufacturer's instructions.

mesenchymal stem cells = assay: Mesenchymal stem cell proliferation; assay type: cell-based; settings: FIG. 1A
AMPK = assay: Kinase selectivity profiling (ProfilerPro Kinase Kits); assay type: biochemical; settings: FIG. 1C
Protocol: (§1) Kinase Selectivity Profiling Kinase selectivity profiling was performed using ProfilerPro Kinase Kits from Caliper (PerkinElmer) according to the manufacturer's instructions.

PKGa = target: T1, PKGa (Homo sapiens, UniProt Q13976); assay: as above; assay type: biochemical; settings: FIG. 1C
T1 construct: purchased Caliper (PerkinElmer) ProfilerPro Kinase Kits
T1 sequence (Q13976 1-671): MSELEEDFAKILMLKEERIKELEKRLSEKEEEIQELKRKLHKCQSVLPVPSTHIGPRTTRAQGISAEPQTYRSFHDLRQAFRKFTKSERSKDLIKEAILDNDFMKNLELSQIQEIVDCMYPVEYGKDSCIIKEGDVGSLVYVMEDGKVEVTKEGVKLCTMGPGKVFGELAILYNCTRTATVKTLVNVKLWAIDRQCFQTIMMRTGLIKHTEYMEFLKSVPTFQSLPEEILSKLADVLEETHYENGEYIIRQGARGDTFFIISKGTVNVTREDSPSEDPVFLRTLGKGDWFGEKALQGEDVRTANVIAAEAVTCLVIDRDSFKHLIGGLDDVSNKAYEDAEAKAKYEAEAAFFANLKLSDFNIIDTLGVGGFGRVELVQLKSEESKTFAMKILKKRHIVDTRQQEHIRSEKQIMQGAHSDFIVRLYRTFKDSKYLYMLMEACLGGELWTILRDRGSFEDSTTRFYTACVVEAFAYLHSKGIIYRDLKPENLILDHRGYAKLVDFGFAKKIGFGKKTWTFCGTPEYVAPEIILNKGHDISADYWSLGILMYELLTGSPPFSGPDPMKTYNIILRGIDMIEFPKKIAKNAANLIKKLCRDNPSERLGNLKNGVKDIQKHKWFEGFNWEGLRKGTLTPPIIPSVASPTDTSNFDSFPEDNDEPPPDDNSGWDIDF
Protocol: as §1

PKA = target: T2, PKA (Homo sapiens, UniProt P17612); assay: as above; assay type: biochemical; settings: FIG. 1C
T2 construct: purchased Caliper (PerkinElmer) ProfilerPro Kinase Kits
Protocol: as §1

MSK1 = target: T3, MSK1 (Homo sapiens, UniProt O75582); assay: as above; assay type: biochemical; settings: FIG. 1C
T3 construct: purchased Caliper (PerkinElmer) ProfilerPro Kinase Kits
Protocol: as §1

SGK1 = target: T4, SGK1 (Homo sapiens, UniProt O00141); assay: as above; assay type: biochemical; settings: FIG. 1C
T4 construct: purchased Caliper (PerkinElmer) ProfilerPro Kinase Kits
T4 sequence (O00141 1-431): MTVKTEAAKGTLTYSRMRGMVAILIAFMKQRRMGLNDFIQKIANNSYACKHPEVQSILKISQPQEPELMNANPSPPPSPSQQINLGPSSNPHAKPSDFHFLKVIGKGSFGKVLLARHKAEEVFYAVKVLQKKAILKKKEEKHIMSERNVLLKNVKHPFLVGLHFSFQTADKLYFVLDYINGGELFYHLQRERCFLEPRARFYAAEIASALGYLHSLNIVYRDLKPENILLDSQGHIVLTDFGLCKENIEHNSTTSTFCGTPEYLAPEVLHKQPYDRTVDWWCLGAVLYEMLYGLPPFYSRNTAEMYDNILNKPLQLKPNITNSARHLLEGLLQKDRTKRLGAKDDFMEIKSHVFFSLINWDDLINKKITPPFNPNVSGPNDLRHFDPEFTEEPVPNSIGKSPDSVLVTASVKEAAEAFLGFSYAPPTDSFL
Protocol: as §1

ROCK2 = target: T5, ROCK2 (Homo sapiens, UniProt O75116); assay: as above; assay type: biochemical; settings: FIG. 1C
T5 construct: purchased Caliper (PerkinElmer) ProfilerPro Kinase Kits
Protocol: as §1

T5 sequence (O75116 whole entry, species assumed): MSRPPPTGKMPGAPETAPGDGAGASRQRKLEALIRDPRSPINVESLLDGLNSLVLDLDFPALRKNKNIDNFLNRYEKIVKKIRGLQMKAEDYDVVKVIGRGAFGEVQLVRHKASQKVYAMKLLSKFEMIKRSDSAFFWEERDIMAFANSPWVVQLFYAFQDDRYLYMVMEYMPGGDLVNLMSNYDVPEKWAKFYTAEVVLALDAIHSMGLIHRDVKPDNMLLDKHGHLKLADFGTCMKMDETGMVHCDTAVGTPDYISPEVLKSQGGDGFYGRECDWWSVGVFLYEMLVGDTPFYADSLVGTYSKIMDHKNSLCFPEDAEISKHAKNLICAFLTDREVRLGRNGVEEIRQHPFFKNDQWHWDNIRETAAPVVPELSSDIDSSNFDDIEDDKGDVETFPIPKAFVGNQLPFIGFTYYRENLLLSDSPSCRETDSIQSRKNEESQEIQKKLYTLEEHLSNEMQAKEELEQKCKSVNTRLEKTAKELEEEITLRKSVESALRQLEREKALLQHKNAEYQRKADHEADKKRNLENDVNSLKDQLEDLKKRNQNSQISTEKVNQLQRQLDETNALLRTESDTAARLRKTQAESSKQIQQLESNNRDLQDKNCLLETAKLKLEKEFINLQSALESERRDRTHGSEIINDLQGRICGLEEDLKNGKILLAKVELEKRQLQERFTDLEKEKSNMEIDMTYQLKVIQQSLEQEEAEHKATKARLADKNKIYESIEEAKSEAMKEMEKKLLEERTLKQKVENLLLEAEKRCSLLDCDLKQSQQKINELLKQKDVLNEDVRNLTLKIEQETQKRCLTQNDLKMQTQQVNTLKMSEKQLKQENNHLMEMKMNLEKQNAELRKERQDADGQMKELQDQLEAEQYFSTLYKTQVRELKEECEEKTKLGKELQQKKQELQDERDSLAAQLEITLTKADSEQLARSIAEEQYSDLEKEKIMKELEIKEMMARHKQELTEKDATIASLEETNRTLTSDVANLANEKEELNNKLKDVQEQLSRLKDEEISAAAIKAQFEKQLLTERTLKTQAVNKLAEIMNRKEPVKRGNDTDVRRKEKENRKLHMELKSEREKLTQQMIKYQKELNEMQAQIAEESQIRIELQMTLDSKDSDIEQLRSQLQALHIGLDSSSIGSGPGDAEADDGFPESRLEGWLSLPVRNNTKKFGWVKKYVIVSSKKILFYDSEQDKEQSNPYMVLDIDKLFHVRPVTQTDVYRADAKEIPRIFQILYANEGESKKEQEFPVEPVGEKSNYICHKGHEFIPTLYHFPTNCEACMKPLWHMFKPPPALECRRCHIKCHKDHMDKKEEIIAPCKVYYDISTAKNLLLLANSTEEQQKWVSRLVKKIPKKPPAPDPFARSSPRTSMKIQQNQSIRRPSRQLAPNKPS
T3 sequence (O75582 whole entry, species assumed): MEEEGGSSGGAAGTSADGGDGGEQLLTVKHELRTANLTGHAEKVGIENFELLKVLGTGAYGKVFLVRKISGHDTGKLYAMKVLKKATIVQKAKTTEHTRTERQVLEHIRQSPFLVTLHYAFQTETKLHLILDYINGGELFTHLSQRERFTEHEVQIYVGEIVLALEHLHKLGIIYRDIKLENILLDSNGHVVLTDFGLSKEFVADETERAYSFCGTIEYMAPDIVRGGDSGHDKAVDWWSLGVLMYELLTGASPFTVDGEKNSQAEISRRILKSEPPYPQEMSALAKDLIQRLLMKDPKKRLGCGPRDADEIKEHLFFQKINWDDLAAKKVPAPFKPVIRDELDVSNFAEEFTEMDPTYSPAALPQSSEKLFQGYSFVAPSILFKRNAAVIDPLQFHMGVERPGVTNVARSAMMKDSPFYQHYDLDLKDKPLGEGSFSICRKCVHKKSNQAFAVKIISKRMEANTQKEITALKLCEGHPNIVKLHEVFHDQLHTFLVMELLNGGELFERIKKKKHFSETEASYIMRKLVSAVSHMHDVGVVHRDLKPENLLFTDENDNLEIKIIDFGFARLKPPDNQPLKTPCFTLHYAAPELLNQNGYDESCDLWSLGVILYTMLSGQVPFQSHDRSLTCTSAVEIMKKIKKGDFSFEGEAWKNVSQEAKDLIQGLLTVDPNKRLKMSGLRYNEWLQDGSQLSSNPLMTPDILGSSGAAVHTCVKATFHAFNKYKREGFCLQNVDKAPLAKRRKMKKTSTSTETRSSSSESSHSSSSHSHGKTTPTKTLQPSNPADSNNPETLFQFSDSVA

| inhibition of AMPK (AMPK) | inhibition of PKGa (PKGa) | inhibition of PKA (PKA) | inhibition of MSK1 (MSK1) | inhibition of SGK1 (SGK1) | inhibition of ROCK2 (ROCK2) | Compound | attachment and migration of spheres on laminin substrate [1] | sphere size [2] | total cell number in suspension culture [2] | proliferation of neural stem cells (ESC-NSCs) | effect on mesenchymal stem cells (proliferation) (mesenchymal stem cells) |
| --- | --- | --- | --- | --- | --- | --- | --- | --- | --- | --- | --- |
| over 80% | over 80% | over 80% | over 80% | over 80% | over 80% | COc1ccc(O)c(C(=O)c2ccc(C(=O)N[C@@H]3CCCNC[C@H]3NC(=O)c3cc(C)c(O)c(C)c3)cc2)c1F.Cl [Compound B, N-{(3R,4R)-4-[4-(2-Fluoro-6-hydroxy-3-methoxy-benzoyl)-benzoylamino]-azepan-3-yl}-4-hydroxy-3,5-dimethyl-benzamide] | have attached and started to migrate | significant increase | significant increase | promoted proliferation of ESC-NSCs in a dose-dependent manner | no effect |
|  |  |  |  |  |  | O=S(=O)(NCCNC/C=C/c1ccc(Br)cc1)c1cccc2cnccc12 [Compound H89, reference compound] |  | increase in sphere size, albeit not at the same extent as Compound B |  |  |  |
|  |  |  |  |  |  | C[C@@H](N)[C@H]1CC[C@H](C(=O)Nc2ccncc2)CC1 [Compound Y27142, reference compound] |  | increase in sphere size, albeit not at the same extent as Compound B |  |  |  |
